Data on one substance can be found in publication PMC12428237, “Study on the Calcium Transport-Promoting Property and Mechanism of the Peptide–Calcium Complex DEEENDQVK–Ca Based on a Caco-2 Monolayer Model” (Foods, 2025).

What all share (type): cell-based, human
Assay [1] deals with Caco-2 monolayer. In words: Calcium transport channel assay with channel regulators. The following applies: then 2 mg/mL sample, 120 min, 37 °C, n = 3. On the procedure: Before the calcium transport channel assay, 0.5 mL of HBSS buffer containing different channel regulators was added to the AP sides of the Transwell chambers. These channel regulators included 2-APB (25 μmol/L) as a calcium channel inhibitor of TRPV6, cytochalasin D (0.5 μmol/ mL) as a paracellular channel promoter, and mβCD (3 mmol/L) as an endocytic channel inhibitor. The group without the added channel regulator served as the control group. The BL side received a 1.5 mL HBSS buffer. Following 30 min incubation, solutions were removed from both sides. The AP side was then loaded with 0.5 mL of either DK–Ca (2 mg/mL) or 2 mg/mL DK + 7.5 mM CaCl2 solution, while the BL side received 1.5 mL HBSS. After 120 min incubation at 37 °C and 5% CO2, the BL solution was collected for calcium transport analysis.

Assay [2] relates to Caco-2 monolayer. The assay is described as follows: Calcium transport assay in Caco-2 monolayer model. Conditions: 120 min. On the procedure:
Caco-2 cells (passages 15–30) were seeded at 1 × 10^5 cells/mL in Transwell chambers (12 mm, 0.4 μm pores, polycarbonate membrane, 1.12 cm^2 area) to establish a Caco-2 monolayer model. The culture medium (0.5 mL in the apical and 1.5 mL in the basolateral) was refreshed every 48 h (first week), then daily (next two weeks). The integrity of the Caco-2 cell monolayer model was verified by the following multiple indicators: Transepithelial electrical resistance (TEER) was monitored every 48 h using an epithelial voltohmmeter (RE1600, Beijing Jingong Hongtai Technology Co., Ltd., Beijing, China). Alkaline phosphatase (ALP) activity was measured on days 8, 12, 14, 16, and 21 after inoculation utilizing an ALP assay kit, following the manufacturer’s protocol. Transepithelial permeability was evaluated using sodium fluorescein following the method of Qiu et al..
Caco-2 monolayer models with a TEER value exceeding 500 Ω·cm^2 are permitted for calcium transport studies. Following three sequential washes with Hank’s balanced salt solution (HBSS; calcium/magnesium-free, pH 7.4), monolayers were equilibrated at 37 °C for 30 min. Afterward, the Transwell chambers were moved to fresh receiver plates for transport assays.
Concentration-dependent CaCl2 transport assay: 0.5 mL of CaCl2 solution (1.5~10 mM) was added to the apical (AP) side. The basolateral (BL) side contained 1.5 mL prewarmed HBSS. After 120 min incubation at 37 °C and 5% CO2, the BL side solution was collected for calcium transport analysis.
Time-dependent CaCl2 transport assay: The AP side contained 0.5 mL of 7.5 mM CaCl2 solution, and the BL side 1.5 mL prewarmed HBSS. At designated intervals (30~180 min), 1 mL BL side solution was collected and replaced with equal volumes of fresh HBSS buffer to maintain consistency.
Different concentrations of DK solution (0.5~2 mg/mL, 0.5 mL) containing 7.5 mM CaCl2, or 0.5 mL of DK–Ca solution (0.5~2 mg/mL), were added to the AP side. The BL side contained 1.5 mL prewarmed HBSS. The control group contained 7.5 mM CaCl2 alone on the AP side. At designated intervals (30~180 min), 1 mL BL side solution was collected and replaced with equal volumes of fresh HBSS buffer to maintain consistency.
Calcium concentration in the collected sample was measured using a calcium colorimetric assay kit at 575 nm. Transported calcium was calculated as follows:(1) Tn=1.5Cn+1×∑k=1n-1Ck […]

Assay [3] concerns Caco-2 monolayer. In words: Fluo-4 AM fluorescence imaging of intracellular calcium influx. Conditions: samples containing 150 μg/mL calcium, 24 h, Fluo-4 AM 4 μmol/L, confocal microscope. On the procedure:
Fluorescence imaging based on intracellular calcium influx was conducted to assess the calcium transport-promoting effect in the Caco-2 monolayer following the method of Men et al.. Log-phase cells were seeded at 1.5 × 10^5 cells/well in 35 mm laser confocal dishes and gently agitated to ensure uniform distribution. Cultures were maintained at 37 °C in 5% CO2 with daily medium replacement until confluent monolayers formed. Subsequently, CaCl2, DK + CaCl2, and DK–Ca solutions (each containing 150 μg/mL calcium) were added separately. The group without an added sample served as the control group. Following 24 h of incubation, the cells were washed thrice with prewarmed calcium-/magnesium-free HBSS buffer (pH 7.2). Under light-protected conditions, 200 µL of Fluo-4 AM (4 μmol/L) was applied to cover the cells. Following 30 min incubation at 37 °C and subsequent washes, cells were dark-adapted for 10 min at room temperature for de-esterification. Imaging was conducted using a confocal microscope (excitation at 496 nm, Zeiss LSM980 Airyscan2, Carl Zeiss, Germany ), followed by quantification of the fluorescence intensity with ImageJ 1.54 g software.
For orientation: Calcium assays in cells follow changes in intracellular calcium, usually with a dye or a luminescent sensor.

In the case of “DEEENDQVK–Ca [DK–Ca, complex formed by chemically chelating DK with CaCl2]”, in the assay on Caco-2 monolayer [1] (2-APB (25 μmol/L, TRPV6 inhibitor) pre-incubation 30 min on AP side), the “reduction of transported calcium by 2-APB treatment compared to the control group” value was 43.94%. Besides, the “improvement of transported calcium by cytochalasin D treatment compared to the control group” value in the assay with Caco-2 monolayer [1] (cytochalasin D (0.5 μmol/ mL, paracellular channel promoter) pre-incubation 30 min on AP side) was 14.82%. The “reduction of transported calcium by mβCD treatment compared to the control group” value in the assay with Caco-2 monolayer [1] (mβCD (3 mmol/L, endocytic channel inhibitor) pre-incubation 30 min on AP side) is 12.35%. Besides, the transported calcium in the assay on Caco-2 monolayer [2] (2 mg/mL DK–Ca (calcium content 300 μg/mL) on AP side, AP to BL, HBSS pH 7.4, 37 °C, calcium colorimetric kit 575 nm, mean ± SD, n = 3) came out at 74.11 ± 1.25 μg/well. The “transported calcium, fold higher than that of the CaCl2 control group” value in the assay with Caco-2 monolayer [2] (calcium content 300 μg/mL (2 mg/mL peptide sample), AP to BL, 37 °C) turned out to be 1.83 fold. Further, the “calcium transport-promoting capacity relative to DK + CaCl2” value in the assay with Caco-2 monolayer [2] (equivalent calcium dose (7.5 mM)) was 1.37 times. Besides, the “fluorescence intensity (intracellular calcium influx) compared to the control group” value in the assay with Caco-2 monolayer [3] is reported as “significantly increased”.
